{"source": "patent US9796711B2", "about": "“Substituted pyrazolo[3,4-b]pyridin-6-carboxylic acids and method of use” (AbbVie S.àr.l., priority 2015, dated 2017)", "molecular_target": "T1, CFTR ΔF508 (Homo sapiens, UniProt P13569, DEL508-508)", "T1 construct": "bronchial epithelial cells isolated from CF patients homozygous for the CFTR ΔF508 mutation; McGill University; Asterand; University of North Carolina hAEC-CF; host or cells: primary human bronchial epithelial cells from CF patients homozygous for ΔF508", "T1 sequence (P13569 with tags, fused parts or gaps DEL508-508)": "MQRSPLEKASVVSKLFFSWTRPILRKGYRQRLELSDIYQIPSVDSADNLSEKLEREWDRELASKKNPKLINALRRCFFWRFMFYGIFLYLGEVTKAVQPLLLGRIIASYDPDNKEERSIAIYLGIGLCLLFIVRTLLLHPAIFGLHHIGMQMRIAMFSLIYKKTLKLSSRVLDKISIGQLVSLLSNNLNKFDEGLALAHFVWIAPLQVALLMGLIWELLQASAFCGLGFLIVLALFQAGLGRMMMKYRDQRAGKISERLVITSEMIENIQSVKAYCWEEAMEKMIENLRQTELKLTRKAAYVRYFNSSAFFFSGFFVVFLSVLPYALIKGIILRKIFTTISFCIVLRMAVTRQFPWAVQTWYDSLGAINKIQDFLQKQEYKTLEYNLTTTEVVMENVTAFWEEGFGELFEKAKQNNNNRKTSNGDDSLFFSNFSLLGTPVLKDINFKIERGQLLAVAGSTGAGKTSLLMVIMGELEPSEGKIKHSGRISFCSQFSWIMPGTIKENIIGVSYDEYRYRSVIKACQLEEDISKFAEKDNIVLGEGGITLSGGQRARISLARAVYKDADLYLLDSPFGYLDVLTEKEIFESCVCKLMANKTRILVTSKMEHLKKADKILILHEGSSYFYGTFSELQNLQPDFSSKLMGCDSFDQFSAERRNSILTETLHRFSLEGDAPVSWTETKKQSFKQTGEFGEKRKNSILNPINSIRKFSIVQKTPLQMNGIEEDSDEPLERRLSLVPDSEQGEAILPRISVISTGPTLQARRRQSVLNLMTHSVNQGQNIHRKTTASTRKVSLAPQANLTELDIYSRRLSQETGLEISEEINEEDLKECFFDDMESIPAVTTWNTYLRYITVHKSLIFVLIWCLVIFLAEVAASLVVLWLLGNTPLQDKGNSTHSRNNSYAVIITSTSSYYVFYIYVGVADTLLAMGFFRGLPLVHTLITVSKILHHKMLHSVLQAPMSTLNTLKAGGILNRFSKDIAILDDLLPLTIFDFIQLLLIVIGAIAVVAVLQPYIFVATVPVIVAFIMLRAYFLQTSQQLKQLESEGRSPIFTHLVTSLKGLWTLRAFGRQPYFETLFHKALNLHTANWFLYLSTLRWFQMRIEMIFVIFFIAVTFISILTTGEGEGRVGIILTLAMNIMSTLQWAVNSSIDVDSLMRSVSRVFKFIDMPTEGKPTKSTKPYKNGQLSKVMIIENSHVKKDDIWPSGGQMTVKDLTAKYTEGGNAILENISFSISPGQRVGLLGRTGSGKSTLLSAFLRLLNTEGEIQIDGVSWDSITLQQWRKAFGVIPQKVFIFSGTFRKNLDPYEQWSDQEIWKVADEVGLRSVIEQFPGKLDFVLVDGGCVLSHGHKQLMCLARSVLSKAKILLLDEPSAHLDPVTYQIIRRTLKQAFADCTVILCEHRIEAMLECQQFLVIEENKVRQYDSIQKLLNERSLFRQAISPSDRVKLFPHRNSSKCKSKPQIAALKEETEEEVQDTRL", "test": "Chronic TECC assay on primary bronchial epithelial cells (corrector, co-corrector and potentiator)", "format": "cell-based", "procedure": "Primary Bronchial Epithelial Cells Protocol\nThe TECC (Tranepithelial Clamp Circuit, EP-design) assay measures the functionality of the cystic fibrosis Transmembrane Conductance regulator (CFTR) by measuring the short circuit current (Isc) generated over the basolateral and apical membrane of lung epithelial cells. In TECC the transepithelial potential PD and transepithelial resistance (Rt)) are measured in an open circuit and transformed to Ieq using Ohm's law. 24 Wells can be measured simultaneously allowing a higher throughput compared to Ussing chambers.\nFor this purpose, bronchial epithelial cells isolated from CF patients homozygous for the CFTR ΔF508 mutation (hAEC-CF, Epithelix, Geneva, Switzerland; McGill University, Montreal, Qc; Asterand, Detroit, Mich.; University of North Carolina, Chapel Hill, N.C.) are plated on type IV collagen-coated Transwell® supports (Costar). Human airway epithelia are generated by provision of an air-liquid interface for 21 days to form well-differentiated polarized cultures that resemble in vivo pseudo-stratified ciliated epithelium (Fulcher, M. L., Gabriel, S., Burns, K. A., Yankaskas, J. R., Randell, S. H., 2005. Well-differentiated human airway epithelial cell cultures. Methods Mol. Med. 107, 183-206). The differentiated cells are treated with test corrector compound(s) (corrector alone or in combination with co-corrector, 4-[(2R,4R)-4-({[1-(2,2-difluoro-1,3-benzodioxol-5-yl)cyclopropyl]carbonyl}amino)-7-methoxy-3,4-dihydro-2H-chromen-2-yl]benzoic acid (G924806/A-1618261) (“acute”) or test corrector compounds, co-corrector and potentiator, N-(3-carbamoyl-5,5,7,7-tetramethyl-4,7-dihydro-5H-thieno[2,3-c]pyran-2-yl)-1H-pyrazole-5-carboxamide GLPG1837, (“chronic”) for 24 hours basolaterally to allow sufficient expression of properly folded CFTR protein on the membrane. All compound plates contained negative controls (DMSO) and positive controls (0.15 μM, 4-[(2R,4R)-4-({[1-(2,2-difluoro-1,3-benzodioxol-5-yl)cyclopropyl]carbonyl}amino)-7-(difluoromethoxy)-3,4-dihydro-2H-chromen-2-yl]benzoic acid).\nFor electrophysiological recording of the “chronic” experiments, the human airway epithelia are mounted in the TECC heating plate for electrophysiological measurement and kept at 37° C. The epithelia are bathed in a NaCl-Ringer solution (120 mM NaCl, 25 mM NaHCO3, 1.2 mM CaCl2, 1.2 mM MgCl2, 0.8 mM KH2PO4, 0.8 mM K2HPO4, pH 7.4, 5 mM glucose) on both the basolateral and apical sides. Test compounds (corrector, co-corrector, 4-[(2R,4R)-4-({[1-(2,2-difluoro-1,3-benzodioxol-5-yl)cyclopropyl]carbonyl}amino)-7-(difluoromethoxy)-3,4-dihydro-2H-chromen-2-yl]benzoic acid, and potentiator, N-(3-carbamoyl-5,5,7,7-tetramethyl-4,7-dihydro-5H-thieno[2,3-c]pyran-2-yl)-1H-pyrazole-5-carboxamide), are re-added to the recording solution prior to measurement. Apical amiloride is used to inhibit the endogenous ENaC currents while forskolin is applied on both apical and basolateral side to stimulate CFTR. Measurements are done during a 20 minute timeframe with recordings every 2 minutes. The increase in Ieq is used as a measure for the increased CFTR activity, EC50 values can be generated by measuring impact of different concentrations of compound on Ieq on primary cells, for this purpose each transwell is treated with a different compound concentration. Inhibitor-172, an inhibitor specific for CFTR, is used to test the specificity of the tested compounds. Raw data were normalized to percentage activity values using the equation: 100×(Sample−Negative control)/(Positive control−Negative Control).", "key": {"[1]": {"conditions": "chronic TECC, AUC = full area under the curve upon forskolin stimulation, with co-corrector and potentiator, 24 hours"}, "[2]": {"conditions": "chronic TECC, Ieq = calculations based on the maximum current, with co-corrector and potentiator, 24 hours"}, "[3]": {"conditions": "chronic TECC, Ieq = calculations based on the maximum current, with co-corrector and potentiator, 24 hours, read-out: EC50 (nM) (Ieq)"}, "[4]": {"conditions": "chronic TECC, AUC = full area under the curve upon forskolin stimulation, with co-corrector and potentiator, 24 hours, read-out: EC50 (nM) (AUC)"}}, "note": "Where two headings read alike, the source gives them in different places.", "data": [{"compound": "O=C(O)c1cc(N2CCC(CCN3CCOCC3)CC2)c2c(C3CCC3)nn(-c3ccccc3)c2n1", "note": "[compound 575, 3-cyclobutyl-4-{4-[2-(morpholin-4-yl)ethyl]piperidin-1-yl}-1-phenyl-1H-pyrazolo[3,4-b]pyridine-6-carboxylic acid]", "values": [{"measurement": "EC50", "value": 100, "unit": "nM"}, {"measurement": "% Activity at 1 μM (AUC**)", "setting": "[1]", "value": 290, "unit": "%"}]}, {"compound": "COC1CCN(c2cc(C(=O)O)nc3c2c(C(C)C)nn3-c2cccc(C)c2)CC1", "note": "[compound 192, 4-(4-methoxypiperidin-1-yl)-1-(3-methylphenyl)-3-(propan-2-yl)-1H-pyrazolo[3,4-b]pyridine-6-carboxylic acid]", "values": [{"measurement": "% Activity at 1 μM (Ieq*)", "setting": "[2]", "value": 235, "unit": "%"}, {"measurement": "EC50", "setting": "[3]", "value": "< 30", "unit": "nM"}]}, {"compound": "CC(C1CCN(c2cc(C(=O)O)nc3c2c(C2CCC2)nn3-c2ccccc2)CC1)N1CCOCC1", "note": "(centres unmarked) [compound 683, 3-cyclobutyl-4-{4-[1-(morpholin-4-yl)ethyl]piperidin-1-yl}-1-phenyl-1H-pyrazolo[3,4-b]pyridine-6-carboxylic acid]", "values": [{"measurement": "% Activity at 1 μM (AUC**)", "setting": "[1]", "value": 196.675, "unit": "%"}]}, {"compound": "COCC1CCN(c2cc(C(=O)O)nc3c2c(C(C)C)nn3-c2cccc(C)c2)CC1", "note": "[compound 227, 4-[4-(methoxymethyl)piperidin-1-yl]-1-(3-methylphenyl)-3-(propan-2-yl)-1H-pyrazolo[3,4-b]pyridine-6-carboxylic acid]", "values": [{"measurement": "% Activity at 1 μM (Ieq*)", "setting": "[2]", "value": 300, "unit": "%"}, {"measurement": "EC50", "setting": "[3]", "value": 30, "unit": "nM"}]}, {"compound": "COCCN1CCN(c2ccc(-c3cc(C(=O)O)nc4c3c(C3CCC3)nn4C3CCCCC3)cn2)CC1", "note": "[compound 878, 3-cyclobutyl-1-cyclohexyl-4-{6-[4-(2-methoxyethyl)piperazin-1-yl]pyridin-3-yl}-1H-pyrazolo[3,4-b]pyridine-6-carboxylic acid]", "values": [{"measurement": "% Activity at 1 μM (AUC**)", "setting": "[1]", "value": 170, "unit": "%"}]}, {"compound": "CO[C@@H]1CCN(CC2CCN(c3cc(C(=O)O)nc4c3c(C3CCC3)nn4-c3ccccc3)CC2)C1", "note": "[compound 803, 3-cyclobutyl-4-(4-{[(3R)-3-methoxypyrrolidin-1-yl]methyl}piperidin-1-yl)-1-phenyl-1H-pyrazolo[3,4-b]pyridine-6-carboxylic acid]", "values": [{"measurement": "% Activity at 1 μM (AUC**)", "setting": "[1]", "value": 161.4501, "unit": "%"}]}, {"compound": "Cc1cccc(-n2nc(C(C)C)c3c(N4CCC(C#N)CC4)cc(C(=O)O)nc32)c1", "note": "[compound 191, 4-(4-cyanopiperidin-1-yl)-1-(3-methylphenyl)-3-(propan-2-yl)-1H-pyrazolo[3,4-b]pyridine-6-carboxylic acid]", "values": [{"measurement": "% Activity at 1 μM (Ieq*)", "setting": "[2]", "value": 220, "unit": "%"}, {"measurement": "EC50", "setting": "[3]", "value": 50, "unit": "nM"}]}, {"compound": "CC(C)OC(=O)N1CC[C@@H]2CN(c3cc(C(=O)O)nc4c3c(C3CCC3)nn4-c3ccccc3)CC[C@@H]21", "note": "(racemic) [compound 610, rac-3-cyclobutyl-1-phenyl-4-[(3aR,7aS)-1-{[(propan-2-yl)oxy]carbonyl}octahydro-5H-pyrrolo[3,2-c]pyridin-5-yl]-1H-pyrazolo[3,4-b]pyridine-6-carboxylic acid]", "values": [{"measurement": "% Activity at 1 μM (AUC**)", "setting": "[1]", "value": 471, "unit": "%"}]}, {"compound": "CC(C)c1nn(-c2ccnc(N3CCOCC3)c2)c2nc(C(=O)O)cc(-c3ccc(N4CCOCC4)cc3)c12", "note": "[compound 201, 4-[4-(morpholin-4-yl)phenyl]-1-[2-(morpholin-4-yl)pyridin-4-yl]-3-(propan-2-yl)-1H-pyrazolo[3,4-b]pyridine-6-carboxylic acid]", "values": [{"measurement": "% Activity at 1 μM (AUC**)", "setting": "[1]", "value": 254, "unit": "%"}, {"measurement": "EC50", "setting": "[4]", "value": "< 30", "unit": "nM"}]}, {"compound": "O=C(O)c1cc(N2CCC(N3CCOCC3)CC2)c2c(C3CCC3)nn(-c3ccc(F)cc3)c2n1", "note": "[compound 679, 3-cyclobutyl-1-(4-fluorophenyl)-4-[4-(morpholin-4-yl)piperidin-1-yl]-1H-pyrazolo[3,4-b]pyridine-6-carboxylic acid]", "values": [{"measurement": "% Activity at 1 μM (AUC**)", "setting": "[1]", "value": 373.3333, "unit": "%"}, {"measurement": "EC50", "setting": "[4]", "value": 28, "unit": "nM"}]}, {"compound": "O=C(O)c1cc(N2CCC3(CC2)CCN(C2CCC2)CC3)c2c(C3CCC3)nn(-c3ccc(F)cc3)c2n1", "note": "[compound 894, 3-cyclobutyl-4-(9-cyclobutyl-3,9-diazaspiro[5.5]undecan-3-yl)-1-(4-fluorophenyl)-1H-pyrazolo[3,4-b]pyridine-6-carboxylic acid]", "values": [{"measurement": "% Activity at 1 μM (AUC**)", "setting": "[1]", "value": 300, "unit": "%"}]}, {"compound": "COCCN1CCC2(CC1)CCN(c1cc(C(=O)O)nc3c1c(C1CCC1)nn3-c1ccc(F)cc1)CC2", "note": "[compound 897, 3-cyclobutyl-1-(4-fluorophenyl)-4-[9-(2-methoxyethyl)-3,9-diazaspiro[5.5]undecan-3-yl]-1H-pyrazolo[3,4-b]pyridine-6-carboxylic acid]", "values": [{"measurement": "% Activity at 1 μM (AUC**)", "setting": "[1]", "value": 375, "unit": "%"}]}, {"compound": "CO[C@H]1CCC[C@@H](n2nc(C(C)C)c3c(-c4ccc(N5CCOCC5)cc4)cc(C(=O)O)nc32)C1", "note": "[compound 205, 1-[(1R,3S)-3-methoxycyclohexyl]-4-[4-(morpholin-4-yl)phenyl]-3-(propan-2-yl)-1H-pyrazolo[3,4-b]pyridine-6-carboxylic acid]", "values": [{"measurement": "% Activity at 1 μM (Ieq*)", "setting": "[2]", "value": 140, "unit": "%"}, {"measurement": "EC50", "setting": "[3]", "value": "> 1000", "unit": "nM"}]}, {"compound": "COC[C@H]1CCN(CC2CCN(c3cc(C(=O)O)nc4c3c(C3CCC3)nn4-c3ccccc3)CC2)C1", "note": "[compound 804, 3-cyclobutyl-4-(4-{[(3S)-3-(methoxymethyl)pyrrolidin-1-yl]methyl}piperidin-1-yl)-1-phenyl-1H-pyrazolo[3,4-b]pyridine-6-carboxylic acid]", "values": [{"measurement": "% Activity at 1 μM (AUC**)", "setting": "[1]", "value": 290, "unit": "%"}]}, {"compound": "CC(C)Oc1cccc(-n2nc(C3CCC3)c3c(N4CCC(N5CCOCC5)CC4)cc(C(=O)O)nc32)n1", "note": "[compound 924, 3-cyclobutyl-4-[4-(morpholin-4-yl)piperidin-1-yl]-1-{6-[(propan-2-yl)oxy]pyridin-2-yl}-1H-pyrazolo[3,4-b]pyridine-6-carboxylic acid]", "values": [{"measurement": "% Activity at 3 μM (AUC)", "setting": "chronic TECC, 3 μM, AUC = full area under the curve upon forskolin stimulation, with co-corrector and potentiator, 24 hours", "value": 235.9027, "unit": "%"}, {"measurement": "EC50", "setting": "[4]", "value": 10.6, "unit": "nM"}]}, {"compound": "CC(C)c1nn(-c2ccc(F)cc2)c2nc(C(=O)O)cc(N3CCC(C(C)N4CCCC4)CC3)c12", "note": "(centres unmarked) [compound 789, 1-(4-fluorophenyl)-3-(propan-2-yl)-4-{4-[1-(pyrrolidin-1-yl)ethyl]piperidin-1-yl}-1H-pyrazolo[3,4-b]pyridine-6-carboxylic acid]", "values": [{"measurement": "% Activity at 1 μM (AUC**)", "setting": "[1]", "value": 235, "unit": "%"}]}, {"compound": "CC(C)c1nn(-c2ccc(F)cc2)c2nc(C(=O)O)cc(N3CCC(CN4CCCCC4)CC3)c12", "note": "[compound 790, 1-(4-fluorophenyl)-4-{4-[(piperidin-1-yl)methyl]piperidin-1-yl}-3-(propan-2-yl)-1H-pyrazolo[3,4-b]pyridine-6-carboxylic acid]", "values": [{"measurement": "% Activity at 1 μM (AUC**)", "setting": "[1]", "value": 220, "unit": "%"}, {"measurement": "EC50", "setting": "[4]", "value": 120, "unit": "nM"}]}, {"compound": "COCCC1CCN(c2cc(C(=O)O)nc3c2c(C(C)C)nn3-c2cccc(C)c2)CC1", "note": "[compound 228, 4-[4-(2-methoxyethyl)piperidin-1-yl]-1-(3-methylphenyl)-3-(propan-2-yl)-1H-pyrazolo[3,4-b]pyridine-6-carboxylic acid]", "values": [{"measurement": "% Activity at 1 μM (Ieq*)", "setting": "[2]", "value": 280, "unit": "%"}, {"measurement": "EC50", "setting": "[3]", "value": "< 30", "unit": "nM"}]}, {"compound": "CCOC(=O)N1CCN(c2cc(C(=O)O)nc3c2c(C2CCC2)nn3-c2ccccc2)CC1", "note": "[compound 539, 3-cyclobutyl-4-[4-(ethoxycarbonyl)piperazin-1-yl]-1-phenyl-1H-pyrazolo[3,4-b]pyridine-6-carboxylic acid]", "values": [{"measurement": "% Activity at 1 μM (AUC**)", "setting": "[1]", "value": 557, "unit": "%"}]}]}
